Source: PubChem BioAssay (NCI)
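How tested: cells in 96-well plates exposed to compound for 48 hours at five concentrations. TGI: total growth inhibition.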

Legend:
Assay in all cases: DTP human tumour cell line panel, 48 h
[1] = test system: 786-0 renal
[2] = test system: A498 renal
[3] = test system: A549 NSCLC
[4] = test system: ACHN renal
[5] = test system: CAKI-1 renal
[6] = test system: COLO 205 colon
[7] = test system: DLD-1 colon
[8] = test system: DMS 114 small cell lung
[9] = test system: DMS 273 small cell lung
[10] = test system: EKVX NSCLC
[11] = test system: HCT-116 colon
[12] = test system: HCT-15 colon
[13] = test system: HOP-18 NSCLC
[14] = test system: HOP-62 NSCLC
[15] = test system: HOP-92 NSCLC
[16] = test system: IGROV1 ovarian
[17] = test system: KM12 colon
[18] = test system: KM20L2 colon
[19] = test system: LOX IMVI melanoma
[20] = test system: MALME-3M melanoma
[21] = test system: NCI-H226 lung
[22] = test system: NCI-H23 lung
[23] = test system: NCI-H460 lung
[24] = test system: OVCAR-3 ovarian
[25] = test system: OVCAR-4 ovarian
[26] = test system: OVCAR-5 ovarian
[27] = test system: OVCAR-8 ovarian
[28] = test system: RXF 393 renal
[29] = test system: SF-268 CNS
[30] = test system: SF-295 CNS
[31] = test system: SF-539 CNS
[32] = test system: SK-MEL-2 melanoma
[33] = test system: SK-MEL-28 melanoma
[34] = test system: SK-MEL-5 melanoma
[35] = test system: SN12C renal
[36] = test system: SNB-19 CNS
[37] = test system: SNB-78 CNS
[38] = test system: SW-620 colon
[39] = test system: TK-10 renal
[40] = test system: U251 CNS
[41] = test system: UACC-257 melanoma
[42] = test system: UACC-62 melanoma
[43] = test system: XF 498 CNS
[44] = test system: CCRF-CEM leukemia
[45] = test system: HCC-2998 colon
[46] = test system: HL-60(TB) leukemia
[47] = test system: HT29 colon
[48] = test system: K-562 leukemia
[49] = test system: LXFL 529 NSCLC
[50] = test system: M14 melanoma
[51] = test system: M19-MEL melanoma
[52] = test system: MOLT-4 leukemia
[53] = test system: NCI-H522 lung
[54] = test system: RPMI-8226 leukemia
[55] = test system: SK-OV-3 ovarian
[56] = test system: SNB-75 CNS
[57] = test system: SR leukemia
[58] = test system: UO-31 renal

CCCCCC(=O)OCCOCCOCCOCCOCCOCc1ccccc1 showed a TGI [1] greater than 100 µM, a TGI [2] greater than 100 µM and a TGI [3] greater than 100 µM. It also gave a TGI [4] greater than 100 µM, a TGI [5] greater than 100 µM and a TGI [6] greater than 100 µM. The TGI [7] was greater than 100 µM, the TGI [8] was greater than 100 µM and the TGI [9] was greater than 100 µM. The TGI [10] was greater than 100 µM, the TGI [11] was greater than 100 µM and the TGI [12] was greater than 100 µM. For the same molecule, the TGI [13] was greater than 100 µM, the TGI [14] was greater than 100 µM and the TGI [15] was greater than 100 µM. For the same molecule, the TGI [16] was greater than 100 µM, the TGI [17] was greater than 100 µM and the TGI [18] was greater than 100 µM. The TGI [19] was greater than 100 µM, the TGI [20] was greater than 100 µM and the TGI [21] was greater than 100 µM. For the same molecule, the TGI [22] was greater than 100 µM, the TGI [23] was greater than 100 µM and the TGI [24] was greater than 100 µM. It also gave a TGI [25] greater than 100 µM, a TGI [26] greater than 100 µM and a TGI [27] greater than 100 µM. The TGI [28] was greater than 100 µM, the TGI [29] was greater than 100 µM and the TGI [30] was greater than 100 µM. For the same molecule, the TGI [31] was greater than 100 µM, the TGI [32] was greater than 100 µM and the TGI [33] was greater than 100 µM. For the same molecule, the TGI [34] was greater than 100 µM, the TGI [35] was greater than 100 µM and the TGI [36] was greater than 100 µM. The TGI [37] was greater than 100 µM, the TGI [38] was greater than 100 µM and the TGI [39] was greater than 100 µM. It also gave a TGI [40] greater than 100 µM, a TGI [41] greater than 100 µM and a TGI [42] greater than 100 µM. It also gave a TGI [43] greater than 100 µM.

For COc1ccc2c3c([nH]c2c1CC=C(C)C)C(=O)C=C(C)C3=O, the TGI [1] was greater than 25 µM, the TGI [3] was greater than 25 µM and the TGI [4] was greater than 25 µM. For the same molecule, the TGI [5] was greater than 25 µM, the TGI [44] was greater than 25 µM and the TGI [6] was greater than 25 µM. For the same molecule, the TGI [7] was greater than 25 µM, the TGI [8] was greater than 25 µM and the TGI [9] was greater than 25 µM. The TGI [10] was greater than 25 µM, the TGI [45] was greater than 25 µM and the TGI [11] was greater than 25 µM. For the same molecule, the TGI [12] was greater than 25 µM, the TGI [46] was greater than 25 µM and the TGI [13] was greater than 25 µM. It also gave a TGI [14] greater than 25 µM, a TGI [15] greater than 25 µM and a TGI [47] greater than 25 µM. It also gave a TGI [16] greater than 25 µM, a TGI [48] greater than 25 µM and a TGI [17] greater than 25 µM. The TGI [18] was greater than 25 µM, the TGI [49] was greater than 25 µM and the TGI [50] was greater than 25 µM. It also gave a TGI [51] greater than 25 µM, a TGI [20] greater than 25 µM and a TGI [52] greater than 25 µM. It also gave a TGI [21] greater than 25 µM, a TGI [22] greater than 25 µM and a TGI [23] greater than 25 µM. For the same molecule, the TGI [53] was greater than 25 µM, the TGI [24] was greater than 25 µM and the TGI [25] was greater than 25 µM. It also gave a TGI [26] greater than 25 µM, a TGI [27] greater than 25 µM and a TGI [54] greater than 25 µM. The TGI [28] was greater than 25 µM, the TGI [29] was greater than 25 µM and the TGI [30] was greater than 25 µM. It also gave a TGI [31] greater than 25 µM, a TGI [32] greater than 25 µM and a TGI [33] greater than 25 µM. For the same molecule, the TGI [34] was greater than 25 µM, the TGI [55] was greater than 25 µM and the TGI [35] was greater than 25 µM. The TGI [36] was greater than 25 µM, the TGI [56] was greater than 25 µM and the TGI [57] was greater than 25 µM. It also gave a TGI [38] greater than 25 µM, a TGI [39] greater than 25 µM and a TGI [40] greater than 25 µM. For the same molecule, the TGI [41] was greater than 25 µM, the TGI [42] was greater than 25 µM and the TGI [58] was greater than 25 µM. The TGI [43] was greater than 25 µM.

CN(C)c1nc(N(C)C)sc(=O)n1 gave a TGI [1] greater than 100 µM, a TGI [2] greater than 100 µM and a TGI [3] greater than 100 µM. It also gave a TGI [4] greater than 100 µM, a TGI [5] greater than 100 µM and a TGI [44] greater than 100 µM. For the same molecule, the TGI [7] was greater than 100 µM, the TGI [8] was greater than 100 µM and the TGI [9] was greater than 100 µM. For the same molecule, the TGI [10] was greater than 100 µM, the TGI [45] was greater than 100 µM and the TGI [12] was greater than 100 µM. It also gave a TGI [46] greater than 100 µM, a TGI [13] greater than 100 µM and a TGI [14] greater than 100 µM. The TGI [15] was greater than 100 µM, the TGI [47] was greater than 100 µM and the TGI [16] was greater than 100 µM. The TGI [48] was greater than 100 µM, the TGI [17] was greater than 100 µM and the TGI [18] was greater than 100 µM. For the same molecule, the TGI [49] was greater than 100 µM, the TGI [50] was greater than 100 µM and the TGI [51] was greater than 100 µM. The TGI [52] was greater than 100 µM, the TGI [21] was greater than 100 µM and the TGI [22] was greater than 100 µM. The TGI [23] was greater than 100 µM, the TGI [53] was greater than 100 µM and the TGI [25] was greater than 100 µM. The TGI [26] was greater than 100 µM, the TGI [27] was greater than 100 µM and the TGI [54] was greater than 100 µM. It also gave a TGI [28] greater than 100 µM, a TGI [29] greater than 100 µM and a TGI [30] greater than 100 µM. It also gave a TGI [31] greater than 100 µM, a TGI [32] greater than 100 µM and a TGI [33] greater than 100 µM. For the same molecule, the TGI [34] was greater than 100 µM, the TGI [55] was greater than 100 µM and the TGI [35] was greater than 100 µM. The TGI [36] was greater than 100 µM, the TGI [56] was greater than 100 µM and the TGI [57] was greater than 100 µM. It also gave a TGI [38] greater than 100 µM, a TGI [39] greater than 100 µM and a TGI [40] greater than 100 µM. The TGI [41] was greater than 100 µM, the TGI [42] was greater than 100 µM and the TGI [58] was greater than 100 µM. It also gave a TGI [43] greater than 100 µM.
